Consider one molecule from PMC10117764, “The roles of serine hydrolases and serum albumin in alisol B 23-acetate hydrolysis in humans” (Frontiers in Pharmacology, 2023).

Each structure is given as a SMILES string. Where “and” joins values, the source holds several entries; their conditions need not be identical. Identical values can stand only once.

Data set [1] is described as follows: Kinetic analysis of AB23A hydrolysis in HLMs. Type of data set: in vitro ADME, human. How it is done:
(§1) The enzymatic kinetics of AB23A hydrolysis in different tissue preparations (HLMs, HIMs, human plasma) and human recombinant enzymes (hCES1A, hCES2A, hSA, hBchE) were analyzed. The incubation system (200 μL) consisted of PBS, each tested enzyme, and AB23A (ranging from 0 to 1,000 μM). After incubating for 1 h, the supernatants were then used for LC-UV analysis. The kinetic parameters of AB23A hydrolysis were fitted by the following Michaelis−Menten Eq. 1 ([Zhang et al., 2022]). V=(Vmax×[S])⁄(Km+[S]) (1) Here, K m is the Michaelis constant of AB23A hydrolysis, V max is the maximum velocity of AB23A hydrolysis, V max /K m is used to calculate the intrinsic clearance (CL int ).

Data set [2] has as its target T1, hBchE (Homo sapiens, UniProt P06276).
T1 construct: purchased Sigma-Aldrich Lot SLCG5158
Description: Reaction phenotyping assay of AB23A hydrolysis, hBchE. The following applies: hBchE 5 μg/mL, AB23A 20 μM, 60 min, pH 7.4 at 37°C. Type of data set: in vitro ADME. As for the experimental part: (§2) The hydrolytic rates of AB23A in different human recombinant enzymes (hCES1A, hCES2A, hPL, hIAH1, hNotum, hAchE, hBchE, hSA, hCTSA, hMAGL) were assayed. The incubation system included PBS, each tested enzyme (5 μg/mL, final concentration), and AB23A (20 μM). After incubation for 1 h at 37°C, ice-cold acetonitrile was added to terminate the reaction and precipitate proteins. The supernatants by centrifuging were used to quantify the formation rates of AB by LC-UV analysis. The detection wavelength of AB was 196 nm.

Data set [3] is described as follows: AB23A hydrolysis in human kidney microsomes. Type of data set: in vitro ADME. As for the experimental part:
(§3) The hydrolytic half-lives (t1/2) of AB23A in human plasma and different human tissue preparations were carried out according to the procedure of in vitro metabolic stability studies ([Ge et al., 2013]). The incubation mixture (1,000 μL) consisted of PBS (pH 7.4), enzyme sources (HLMs/HIMs/human plasma) and AB23A. 25% diluted human plasma was used, the protein concentrations of other tissue microsomes were 0.1 mg/mL. The 100 μL incubation mixture was moved to another containing ice-cold acetonitrile tube at different time points (0, 5, 15, 30, 45, 60, 90, 120 min). All samples were centrifuged for 30 min at 20,000 g 4°C and took the supernatants for LC-UV analysis.
(§4) The incubation conditions were as follows: the classic incubation system included 100 mM potassium phosphate buffer (PBS, pH 7.4), enzyme sources, and AB23A. In all incubations, PBS and enzyme sources were pre-incubation at 37 °C for 3 min and the reaction was started by adding AB23A (the organic solvent content at most 1%). After reacting 1 h, ice-cold acetonitrile was added to terminate the reaction and precipitate proteins. The samples were centrifuged for 30 min at 20000 × g, 4 °C, and the supernatants were taken for further LC-UV analysis.

Data set [4] deals with T2, hCES2A (Homo sapiens, UniProt O00748).
T2 construct: 10xHis; made in house; host or cells: HEK293-F cells, pTT5 vector, purified from conditioned medium
T2 sequence (O00748 27-559): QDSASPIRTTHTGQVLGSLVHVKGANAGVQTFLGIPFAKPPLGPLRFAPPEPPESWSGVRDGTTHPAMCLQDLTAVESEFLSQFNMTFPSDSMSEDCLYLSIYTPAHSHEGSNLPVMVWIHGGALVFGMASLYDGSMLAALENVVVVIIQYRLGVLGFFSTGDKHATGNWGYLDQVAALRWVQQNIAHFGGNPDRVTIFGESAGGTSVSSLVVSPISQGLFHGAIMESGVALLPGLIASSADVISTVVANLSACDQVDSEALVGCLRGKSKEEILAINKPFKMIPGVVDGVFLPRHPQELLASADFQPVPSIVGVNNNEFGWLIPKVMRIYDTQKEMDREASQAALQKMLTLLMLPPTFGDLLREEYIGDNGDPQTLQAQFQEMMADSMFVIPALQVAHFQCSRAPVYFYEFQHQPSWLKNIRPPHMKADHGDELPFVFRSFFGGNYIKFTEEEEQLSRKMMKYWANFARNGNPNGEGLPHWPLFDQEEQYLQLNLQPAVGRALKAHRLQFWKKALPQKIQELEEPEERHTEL
As to the kind of experiment: Reaction phenotyping assay of AB23A hydrolysis, hCES2A. Type of data set: in vitro ADME. The note with it: hCES2A 5 μg/mL, AB23A 20 μM, 60 min, pH 7.4 at 37°C. How it is done: as §2

Data set [5] in a line: Hydrolytic half-life of AB23A in human liver microsomes. Type of data set: in vitro ADME. The following applies: human liver microsomes (HLMs), HLMs 0.1 mg/mL, PBS pH 7.4, read-out: t1/2 (hydrolytic/metabolic half-life). As for the experimental part: as §3, §4
(Liver microsomes are vesicles of endoplasmic reticulum, rich in cytochrome P450 enzymes.)

Data set [6] in a line: Hydrolytic half-life of AB23A in pig liver microsomes. Type of data set: in vitro ADME. The following applies: pig liver microsomes (PLMs), pH 7.4, PLMs 0.10 mg/mL, read-out: T1/2 (hydrolytic half-life).
For data set [7], the target named is T3, hSA (Homo sapiens, UniProt P02768).
T3 construct: purchased Sigma-Aldrich Lot#SLCC9268
Description: Kinetic analysis of AB23A hydrolysis in hSA. Type of data set: in vitro ADME. The following applies: 1 h incubation. As for the experimental part: as §1

T3 sequence (P02768 25-609): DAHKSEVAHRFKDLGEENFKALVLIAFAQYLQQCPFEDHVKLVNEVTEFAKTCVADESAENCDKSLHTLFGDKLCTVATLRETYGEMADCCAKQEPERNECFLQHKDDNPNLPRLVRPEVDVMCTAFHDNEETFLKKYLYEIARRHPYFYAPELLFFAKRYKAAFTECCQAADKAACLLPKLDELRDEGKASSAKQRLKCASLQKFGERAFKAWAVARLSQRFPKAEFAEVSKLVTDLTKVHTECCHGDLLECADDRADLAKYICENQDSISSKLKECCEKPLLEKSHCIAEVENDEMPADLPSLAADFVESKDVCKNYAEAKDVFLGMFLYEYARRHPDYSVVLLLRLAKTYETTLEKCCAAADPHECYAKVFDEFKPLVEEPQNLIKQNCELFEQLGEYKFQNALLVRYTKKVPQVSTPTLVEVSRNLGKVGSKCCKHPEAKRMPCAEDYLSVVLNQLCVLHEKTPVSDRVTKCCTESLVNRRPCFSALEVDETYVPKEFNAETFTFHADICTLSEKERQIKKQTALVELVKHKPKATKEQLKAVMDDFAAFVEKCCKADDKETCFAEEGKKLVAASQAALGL
T1 sequence (P06276 29-602): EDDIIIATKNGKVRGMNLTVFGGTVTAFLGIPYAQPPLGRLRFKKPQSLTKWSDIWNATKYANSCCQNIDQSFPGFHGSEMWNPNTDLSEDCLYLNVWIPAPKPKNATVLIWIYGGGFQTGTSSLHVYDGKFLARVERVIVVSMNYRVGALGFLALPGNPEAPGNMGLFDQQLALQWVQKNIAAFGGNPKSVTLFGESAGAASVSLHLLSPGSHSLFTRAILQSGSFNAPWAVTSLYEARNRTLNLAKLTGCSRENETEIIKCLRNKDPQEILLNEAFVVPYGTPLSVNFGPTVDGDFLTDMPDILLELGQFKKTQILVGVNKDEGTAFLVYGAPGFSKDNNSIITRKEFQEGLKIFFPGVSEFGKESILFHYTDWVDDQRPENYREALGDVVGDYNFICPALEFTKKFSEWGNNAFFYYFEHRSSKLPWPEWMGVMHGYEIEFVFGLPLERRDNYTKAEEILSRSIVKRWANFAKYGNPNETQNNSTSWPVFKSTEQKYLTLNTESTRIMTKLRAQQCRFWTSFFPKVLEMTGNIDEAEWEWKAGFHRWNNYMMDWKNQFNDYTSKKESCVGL

In the case of `CC(=O)O[C@H](C[C@@H](C)C1=C2C[C@H](O)C3[C@@]4(C)CCC(=O)C(C)(C)C4CC[C@]3(C)[C@@]2(C)CC1)[C@H]1OC1(C)C` (some centres unmarked) [AB23A, Alisol B 23-acetate], the “K m of AB23A hydrolysis” value in data set [1] turned out to be 41.18 ± 3.46 µM; in data set [7], 261.20 ± 18.69 µM. In addition, the “V max of AB23A hydrolysis” value in data set [1] is 4.77 ± 0.08 nmol/min/mg protein and 4.77 ± 0.08 ^a nmol/min/mg protein. Also, the “Hydrolytic rate (formation of AB) in reaction phenotyping” value is on record as “faster hydrolytic rate” in data set [2] and “also catalyzed this hydrolytic reaction” in data set [4]. Moreover, the “Formation of AB (hydrolytic metabolite) in HKMs” value in data set [3] is listed as “trace amount of AB”. The half-life stood at 41 ± 0.01 min in data set [5] and 9.5 ± 0.05 min in data set [6].
